Test results as given in US12509437B2, “Substituted thiophene carboxamides and derivatives thereof as microbicides” (Bayer Aktiengesellschaft, priority 2019, dated 2025).
Read-outs that look alike come from different tables or passages of the source.

What was measured:
[1] = system: Peronospora parasitica; test: In vivo preventive test on Peronospora parasitica (Crucifer downy mildew) on cabbage; conditions: Hyaloperonospora parasitica, 120 h, sprayed 72 hours before inoculation, evaluated 5 days after inoculation, read-out: efficacy; for pest or weed control at 31 ppm: 31 ppm of active ingredient; for pest or weed control at 125 ppm: 125 ppm of active ingredient; for pest or weed control at 500 ppm: 500 ppm of active ingredient
Outline: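 Young cabbage plants were sprayed with compound in aqueous acetone/DMSO/Tween, then inoculated 72 h later with P. parasitica spores and held 5 days at 20 °C, 100% RH. Efficacy scored 5 days post-inoculation: 0% equals solvent-treated controls, 100% means no disease.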

[2] = system: Pseudomonas syringae pv. tomato; test: Pseudomonas syringae pv. tomato in vitro cell test; assay type: cell-based; conditions: 20 ppm of active ingredient, 24 h of incubation, read-out: efficacy (inhibition of bacteria growth; no direct activity)
Experimental: (§1) • Solvent: DMSO • Culture medium: LB broth medium (Luria Broth Miller) Sigma • Inoculum: bacteria suspension Compounds were solubilized in DMSO and the solution used to prepare the required range of concentrations. The final concentration of DMSO used in the assay was ≤1%. Inoculum was prepared from a pre-culture of bacteria grown in liquid medium and diluted to the desired optical density (OD). Compounds were evaluated for their ability to inhibit bacteria growth in liquid culture assay. The compounds were added in the desired concentrations to culture medium containing the bacteria suspension. After 24 h of incubation, the efficacy of compounds was determined by spectrometric measurement of bacteria growth. Inhibition was determined by comparing the absorbance values in wells containing the compounds with the absorbance in control wells without active ingredients.

[3] = system: salicylate responsive promoter sequence of the PR1 (pathogenesis-related protein I) gene (AT2G14610); test: Induction of defense gene expression in Arabidopsis thaliana (PR1 promoter-GFP reporter plants); assay type: in vivo; conditions: 72 h, 3rd day after spraying, mock treated leaves set as 1.00, read-out: relative fluorescence value
Outline: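 Transgenic A. thaliana carrying GFP under the salicylate-responsive PR1 promoter, grown five days, then sprayed with compounds. Whole-plant fluorescence imaged and quantified on day 3 post-spray, expressed relative to mock-treated leaf background set at 1.00.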

[4] = system: Xanthomonas campestris pv. campestris; test: In vivo preventive test on Xanthomonas campestris pv. campestris (black rot on cabbage); conditions: Xanthomonas campestris, sprayed 72 hours before inoculation, evaluated 8 or 10 days after inoculation, read-out: efficacy; for pest or weed control at 31 ppm: 31 ppm of active ingredient; for pest or weed control at 125 ppm: 125 ppm of active ingredient
Outline: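 Young cabbage plants sprayed preventively with compound formulated in acetone/DMSO/Tween and diluted in water, then inoculated 72 h later with a bacterial spray. Kept at 27° C, 95% relative humidity; disease scored after 8 or 10 days as % efficacy versus solvent-treated controls (0% = control, 100% = no disease).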

[5] = system: Alternaria alternata; test: Alternaria alternata in vitro cell test; assay type: cell-based; conditions: 120 h, 5 days incubation, read-out: efficacy (inhibition of fungal growth; no direct activity); for inhibition at 5 ppm: 5 ppm of active ingredient; for inhibition at 20 ppm: 20 ppm of active ingredient
Experimental: (§2) • Solvent: DMSO • Culture medium: 14.6 g anhydrous D-glucose (VWR), 7.1 g Mycological Peptone (Oxoid), 1.4 g granulated Yeast Extract (Merck), QSP 1 liter • Inoculum: spores suspension Fungicides were solubilized in DMSO and the solution used to prepare the required range of concentrations. The final concentration of DMSO used in the assay was ≤[…]1%. A spore suspension of A. alternata was prepared and diluted to the desired spore density. Fungicides were evaluated for their ability to inhibit spore germination and mycelium growth in liquid culture assay. The compounds were added in the desired concentration to the culture medium with spores. After 5 days incubation, fungi-toxicity of compounds was determined by spectrometric measurement of mycelium growth. Inhibition of fungal growth was determined by comparing the absorbance values in wells containing the fungicides with the absorbance in control wells without fungicides.

[6] = system: Colletotrichum lindemuthianum; test: In vivo preventive test on Colletotrichum lindemuthianum (Anthracnose on bean); conditions: Colletotrichum lindemuthianum, 144 h, sprayed 72 hours before inoculation, evaluated 6 days after inoculation, read-out: efficacy; for pest or weed control at 31 ppm: 31 ppm of active ingredient; for pest or weed control at 125 ppm: 125 ppm of active ingredient; for pest or weed control at 500 ppm: 500 ppm of active ingredient
Outline: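 Young bean plants were sprayed with compound in acetone/DMSO/Tween diluted in water, then inoculated 72 h later with C. lindemuthianum spores. Incubation was 24 h at 20 °C/100% RH, then 5 days at 20 °C/90% RH. Efficacy scored 6 days post-inoculation: 0% equals solvent-treated control, 100% means no disease.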

[7] = system: Uromyces appendiculatus; test: In vivo preventive test on Uromyces appendiculatus (bean rust); conditions: 240 h, sprayed 72 hours before inoculation, evaluated 10 days after inoculation, read-out: efficacy; for pest or weed control at 31 ppm: 31 ppm of active ingredient; for pest or weed control at 125 ppm: 125 ppm of active ingredient; for pest or weed control at 500 ppm: 500 ppm of active ingredient
Outline: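 Young bean plants sprayed with compound in acetone/DMSO/Tween diluted in water, then inoculated 72 h later with spore suspension. Incubated 24 h at 20° C., 100% RH, then 9 days at 20° C., 70-80% RH. Efficacy scored 10 days post-inoculation, 0% = untreated-control level, 100% = no disease.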

[8] = system: Xanthomonas campestris pv. campestris; test: Xanthomonas campestris pv. campestris in vitro cell test; assay type: cell-based; conditions: 24 h of incubation, read-out: efficacy (inhibition of bacteria growth; no direct activity); for inhibition at 5 ppm: 5 ppm of active ingredient; for inhibition at 20 ppm: 20 ppm of active ingredient
Experimental: as §1

[9] = system: Colletotrichum lindemuthianum; test: Colletotrichum lindemuthianum in vitro cell test; assay type: cell-based; conditions: 144 h, 6 days incubation, read-out: efficacy (inhibition of fungal growth; no direct activity); for inhibition at 5 ppm: 5 ppm of active ingredient; for inhibition at 20 ppm: 20 ppm of active ingredient
Experimental: as §2, with “of C. lindemuthianum” for “of A. alternata”, “inhibit spores” for “inhibit spore”, “After 6” for “After 5”

[10] = LogP by HPLC on reversed phase columns (EEC directive 79/831 Annex V.A8); assay type: physicochemical; conditions: reversed phase HPLC columns
Outline: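 Reversed-phase HPLC, calibrated with straight-chain alkan-2-ones (C3–C16) of known LogP; values by linear interpolation of retention times between successive alkanones. Multiple values from one method are joined by "+"; lambda-max taken from 200–400 nm UV spectra at chromatographic peaks.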

[11] = preparation examples, method not indicated, read-out: Log P

SMILES | chromatographic logP ([10]; method [a]) | pest or weed control at 31 ppm [1] [%] | pest or weed control at 125 ppm [1] [%] | pest or weed control at 500 ppm [1] [%] | inhibition at 20 ppm [2] [%] | fold induction at 75 ppm [3] | fold induction at 300 ppm [3] | pest or weed control at 125 ppm [4] [%] | inhibition at 5 ppm [5] [%] | pest or weed control at 31 ppm [6] [%] | pest or weed control at 125 ppm [6] [%] | pest or weed control at 500 ppm [6] [%] | pest or weed control at 125 ppm [7] [%] | pest or weed control at 500 ppm [7] [%] | inhibition at 5 ppm [8] [%] | inhibition at 20 ppm [8] [%] | inhibition at 5 ppm [9] [%] | inhibition at 20 ppm [5] [%] | inhibition at 20 ppm [9] [%] | other results
C=CC1CC1(NC(=O)c1sc(Br)c(Br)c1C)C(=O)OC (centres unmarked) [I.003] | 3.48 |  | 80 to 89 | 90 to 100 | ≤ 30 | > 2 |  |  | ≤ 30 |  |  | 80 to 89 | 90 to 100 | 90 to 100 | ≤ 30 | ≤ 30 | ≤ 30 | ≤ 30 |  | 
CCOC(=O)C1(NC(=O)c2sc(Br)c(Br)c2C)COC1 [I.014] | 2.9 | 90 to 100 | 90 to 100 | 90 to 100 | ≤ 30 | > 2 | > 2 |  | ≤ 30 | 70 to 79 | 80 to 89 | 90 to 100 | 90 to 100 | 90 to 100 | ≤ 30 | ≤ 30 | ≤ 30 | ≤ 30 | ≤ 30 | pest or weed control at 31 ppm [7]: 90 to 100%
CCOC(=O)[C@@H](NC(=S)c1sc(Br)c(Br)c1C)C(C)C [I.023, ethyl N-[(4,5-dibromo-3-methyl-2-thienyl)carbonothioyl]valinate] |  | 80 to 89 | 90 to 100 | 90 to 100 | ≤ 30 |  | > 2 | 80 to 89 | ≤ 30 | 90 to 100 | 90 to 100 | 90 to 100 |  |  | ≤ 30 | ≤ 30 | ≤ 30 | ≤ 30 | ≤ 30 | pest or weed control at 500 ppm ([4]; 500 ppm of active ingredient): 70 to 79%; chromatographic logP [10, 11]: 5.22
Cc1c(C(=S)N[C@H](C(=O)O)C(C)C)sc(Br)c1Br [I.031, N-[(4,5-dibromo-3-methyl-2-thienyl)carbonothioyl]valine] |  |  | 90 to 100 | 90 to 100 | ≤ 30 | > 2 | > 2 |  | ≤ 30 |  |  | 90 to 100 |  | 70 to 79 | ≤ 30 | ≤ 30 | ≤ 30 | ≤ 30 | ≤ 30 | chromatographic logP [10, 11]: 3.72

Now from value to compound, other results behind:

chromatographic logP ([10]; method [a]) | SMILES | pest or weed control at 31 ppm [1] [%] | pest or weed control at 125 ppm [1] [%] | pest or weed control at 500 ppm [1] [%] | inhibition at 20 ppm [2] [%] | fold induction at 75 ppm [3] | fold induction at 300 ppm [3] | pest or weed control at 125 ppm [4] [%] | inhibition at 5 ppm [5] [%] | pest or weed control at 31 ppm [6] [%] | pest or weed control at 125 ppm [6] [%] | pest or weed control at 500 ppm [6] [%] | pest or weed control at 125 ppm [7] [%] | pest or weed control at 500 ppm [7] [%] | inhibition at 5 ppm [8] [%] | inhibition at 20 ppm [8] [%] | inhibition at 5 ppm [9] [%] | inhibition at 20 ppm [5] [%] | inhibition at 20 ppm [9] [%] | other results
3.37 | CCOC(=O)C(COC)NC(=O)c1sc(Cl)c(Cl)c1C (centres unmarked) [I.044] | 90 to 100 | 90 to 100 | 90 to 100 | ≤ 30 | > 2 | > 2 | 80 to 89 | ≤ 30 | 80 to 89 | 90 to 100 | 90 to 100 | 90 to 100 | 90 to 100 | ≤ 30 | ≤ 30 | ≤ 30 |  |  | pest or weed control at 31 ppm [4]: 70 to 79%; pest or weed control at 31 ppm [7]: 90 to 100%
1.5 | COC(=O)C(Cc1c[nH]cn1)NC(=O)c1sc(Br)c(Br)c1C (centres unmarked) [I.033] |  | 70 to 79 | 80 to 89 | ≤ 30 |  | > 2 | 70 to 79 | ≤ 30 |  | 80 to 89 | 90 to 100 |  | 90 to 100 | ≤ 30 | ≤ 30 | ≤ 30 | ≤ 30 | ≤ 30 | pest or weed control at 31 ppm [4]: 70 to 79%
2.28 | CCOC(=O)C(CC(N)=O)NC(=O)c1sc(Cl)c(Cl)c1C (centres unmarked) [I.045] | 90 to 100 | 90 to 100 | 90 to 100 | ≤ 30 |  | > 2 |  | ≤ 30 |  |  | 80 to 89 |  | 90 to 100 | ≤ 30 | ≤ 30 | ≤ 30 | ≤ 30 | ≤ 30 | 
3.25 | COC(=O)C(CC(F)F)NC(=O)c1sc(Cl)c(Cl)c1C (centres unmarked) [I.043] | 90 to 100 | 90 to 100 | 90 to 100 | ≤ 30 |  | > 2 |  | ≤ 30 | 90 to 100 | 90 to 100 | 90 to 100 | 80 to 89 | 90 to 100 | ≤ 30 | ≤ 30 | ≤ 30 | ≤ 30 |  | 
